Source: the supplement of paper PMC11451515

Legend:
Test in all cases: AUC of viability dose-response curve (% viability x log10 dose units); higher = less sensitive
Details in all cases: 48 h
NOMO1 = test system: NOMO1
How it was run: (§1)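 Leukemia cells adapted to each medium were seeded at 500 or 1000 cells/well in 1536-well plates and dosed with library compounds in DMSO at 11 threefold doses from 47 μM to 0.79 nM for 48 h at 37°C. CellTiter-Glo One luminescence was normalised per plate to DMSO and cell-free wells, then fitted with a four-parameter log-logistic model over log10 doses. Area under the curve was taken from this fit by the trapezoidal rule, with curves above full viability scaled and curves failing quality control removed.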

P12-Ichikawa = test system: P12-Ichikawa
How it was run: as §1

SEM cells = test system: SEM cells
How it was run: as §1

[1] = RPMI 5 mM glucose + 10% dialyzed FBS

Row | SMILES | AUC of viability dose-response curve (NOMO1; HPLM + 10% dialyzed FBS) | AUC of viability dose-response curve (NOMO1; RPMI 5 mM glucose + 10% FBS) | AUC of viability dose-response curve (NOMO1; [1]) | AUC of viability dose-response curve (P12-Ichikawa; HPLM + 10% dialyzed FBS) | AUC of viability dose-response curve (P12-Ichikawa; RPMI 5 mM glucose + 10% FBS) | AUC of viability dose-response curve (P12-Ichikawa; [1]) | AUC of viability dose-response curve (SEM cells; HPLM + 10% dialyzed FBS) | AUC of viability dose-response curve (SEM cells; RPMI 5 mM glucose + 10% FBS) | AUC of viability dose-response curve (SEM cells; [1])
1 | CO[C@H]1C[C@@H]2CC[C@@H](C)[C@@](O)(O2)C(=O)C(=O)N2CCCC[C@H]2C(=O)O[C@H]([C@H](C)C[C@@H]2CC[C@@H](OP(C)(C)=O)[C@H](OC)C2)CC(=O)[C@H](C)/C=C(\C)[C@@H](O)[C@@H](OC)C(=O)[C@H](C)C[C@H](C)/C=C/C=C/C=C/1C | 452 | 462 | 476 | 453 | 411 | 414 | 382 | 360 | 380
2 | CCC1=C[C@@H]2CN(C1)Cc1c([nH]c3ccccc13)[C@@](C(=O)OC)(c1cc3c(cc1OC)N(C)[C@H]1[C@@](O)(C(=O)OC)[C@H](OC(C)=O)[C@]4(CC)C=CCN5CC[C@]31[C@@H]54)C2 | 256 | 259 | 260 | 202 | 182 | 238 | 244 | 187 | 241
3 | O=C(O)[C@H](Cc1c[nH]c2ccccc12)N1C(=O)c2ccccc2C1=O | 440 | 426 | 470 | 474 | 462 | 460 | 445 | 440 | 405
4 | OC[C@H]1O[C@@H](Oc2ccc(O)cc2)[C@H](O)[C@@H](O)[C@@H]1O | 461 | 426 | 404 | 461 | 421 | 426 | 376 | 390 | 397
5 | CNC(=O)c1cccc(-c2ccc3c(N4CCOC[C@@H]4C)nc(N4CCOC[C@@H]4C)nc3n2)c1 | 343 | 376 | 323 | 370 | 316 | 322 | 305 | 333 | 305
6 | O=C(Cc1cccc(OC(F)(F)F)c1)Nc1ccc(CCCCc2nnc(NC(=O)Cc3ccccn3)s2)nn1 | 407 | 388 | 394 | 426 | 386 | 387 | 381 | 276 | 277
7 | CN(C)CCOC(c1ccccc1)c1ccccc1 | 470 | 459 | 467 | 471 | 473 | 469 | 460 | 473 | 452
8 | C#Cc1cccc(Nc2ncnc3cc(OCCOC)c(OCCO)cc23)c1 | 372 | 455 | 455 | 451 | 453 | 451 | 431 | 400 | 417
9 | Nc1nc(-c2nn(Cc3ccccc3F)c3ncccc23)nc(N)c1N1CCOCC1 | 461 | 458 | 467 | 469 | 463 | 473 | 462 | 458 | 467
10 | Fc1ccc(C(c2ccc(F)cc2)N2CCN(C/C=C/c3ccccc3)CC2)cc1 | 432 | 467 | 457 | 456 | 462 | 447 | 404 | 392 | 424
11 | NC(=O)N1c2ccccc2CC(=O)c2ccccc21 | 408 | 444 | 466 | 461 | 456 | 464 | 466 | 427 | 389
12 | Cc1cc(O)c2c3c4c(cc(O)c13)C(C)(C)C(=O)c1c(O)cc(O)c(c1-4)C2=O | 450 | 451 | 462 | 460 | 457 | 454 | 457 | 465 | 450
13 | O=C1NC(=O)[C@@H](c2cn3c4c(cccc24)CCC3)[C@@H]1c1c[nH]c2ccccc12 | 367 | 363 | 379 | 358 | 344 | 380 | 345 | 317 | 348
14 | ClC1=CC=C(CCCOC/2=N/NC(=O)C(=C2NCC3=CN=CC=C3)/Br)C=C1 | 344 | 390 | 392 | 387 | 430 | 382 | 323 | 358 | 391
15 | CC(C)OC(=O)CCC/C=C\C[C@@H]1[C@@H](/C=C/[C@@H](O)COc2cccc(C(F)(F)F)c2)[C@H](O)C[C@@H]1O | 443 | 448 | 450 | 459 | 439 | 446 | 455 | 452 | 434
16 | CCOC(=O)C/1=C(C)/NC(=S)NC1C2=CC=CC(=C2)O (configuration not stated) | 286 | 272 | 300 | 251 | 246 | 281 | 242 | 242 | 263
17 | Fc1cc(-c2cccc3ncc(-c4cnn(C5CCNCC5)c4)nc23)cc(F)c1CN1CCOCC1 | 378 | 409 | 412 | 407 | 423 | 412 | 379 | 378 | 385

Row | SMILES | AUC of viability dose-response curve (NOMO1; HPLM + 10% dialyzed FBS) | AUC of viability dose-response curve (NOMO1; RPMI 5 mM glucose + 10% FBS) | AUC of viability dose-response curve (NOMO1; [1]) | AUC of viability dose-response curve (P12-Ichikawa; HPLM + 10% dialyzed FBS) | AUC of viability dose-response curve (P12-Ichikawa; RPMI 5 mM glucose + 10% FBS) | AUC of viability dose-response curve (P12-Ichikawa; [1]) | AUC of viability dose-response curve (SEM cells; HPLM + 10% dialyzed FBS) | AUC of viability dose-response curve (SEM cells; RPMI 5 mM glucose + 10% FBS) | AUC of viability dose-response curve (SEM cells; [1])
18 | Cc1cc(Nc2ncc(Cl)c(Nc3ccccc3[S+](=O)([O-])C(C)C)n2)c(OC(C)C)cc1C1CCNCC1 | 396 | 395 | 395 | 449 | 425 | 442 | 380 | 393 | 392
19 | COc1cc2ncnc(-n3nc(-c4ccccn4)nc3N)c2cc1OC | 437 | 406 | 418 | 447 | 436 | 413 | 360 | 326 | 317
20 | CC(C)(C)OC(=O)CN(Cc1ccc(Cl)cc1)Cc1ccc([N+](=O)[O-])s1 | 441 | 436 | 464 | 456 | 443 | 429 | 449 | 454 | 436
21 | COc1ccc(CCN2CCN(CCCc3ccccc3)CC2)cc1OC | 459 | 444 | 439 | 466 | 472 | 473 | 461 | 465 | 457
22 | CCCCN(CCCC)CCC(O)c1cc2c(Cl)cc(Cl)cc2c2cc(C(F)(F)F)ccc12 (configuration not stated) | 453 | 459 | 471 | 466 | 459 | 452 | 442 | 408 | 415
23 | COc1ccc(/C=C\c2cc(OC)c(OC)c(OC)c2)cc1O | 197 | 126 | 155 | 48.7 | 57 | 71.5 | 85.1 | 50.9 | 70
24 | O=C(NC1CCNCC1)c1n[nH]cc1NC(=O)c1c(Cl)cccc1Cl | 321 | 332 | 324 | 345 | 341 | 357 | 319 | 323 | 326
25 | CN1C(=O)\C(=C/C(=C1/NC2=C(F)C=C(I)C=C2)C(=O)NOCCO)C | 257 | 281 | 253 | 441 | 423 | 451 | 398 | 403 | 342
26 | COC[C@H](NC(=O)c1cnc(C)s1)C(=O)N[C@@H](COC)C(=O)N[C@@H](Cc1ccccc1)C(=O)[C@@]1(C)CO1 | 265 | 273 | 271 | 251 | 245 | 231 | 214 | 213 | 199
27 | C[C@H]([C@H](O)CCC(C)(C)O)[C@H]1CC[C@@]2(O)C/3=C/C(=O)[C@@H]4C[C@@H](O)[C@@H](O)C[C@]4(C)[C@H]3CC[C@]12C | 470 | 468 | 476 | 460 | 452 | 470 | 461 | 458 | 474
28 | COc1nc(-c2ccc3c(c2)OCO3)n(-c2ccc(NC(=O)CSc3ccccc3)cc2)n1 | 440 | 449 | 455 | 470 | 454 | 428 | 457 | 443 | 453
29 | CC(C)C[C@H](CN)CC(=O)O | 460 | 445 | 458 | 450 | 458 | 455 | 449 | 452 | 451
30 | Cc1cc2c(C(C)C)c(O)c(O)c(C=O)c2c(O)c1-c1c(C)cc2c(C(C)C)c(O)c(O)c(C=O)c2c1O | 445 | 449 | 452 | 453 | 451 | 452 | 459 | 447 | 444
31 | CCC(=O)O[C@@]1([C@@H](C)C[C@H]2[C@@H]3CCC/4=C/C(=O)/C=C\[C@]4(C)[C@@]3(F)[C@@H](O)C[C@]12C)C(=O)CCl | 411 | 467 | 429 | 325 | 254 | 251 | 339 | 336 | 308
32 | C[C@H](NC(=O)C(=O)Nc1ccccc1C(C)(C)C)C(=O)N[C@@H](CC(=O)O)C(=O)COc1c(F)c(F)cc(F)c1F | 428 | 445 | 450 | 440 | 427 | 425 | 395 | 391 | 390
33 | CCOC(=O)Nc1ccc(NCc2ccc(F)cc2)cc1N | 424 | 448 | 445 | 452 | 464 | 451 | 459 | 467 | 470
